Tests used:
[1] = test system: eggs of nematodes (Meloidogyne arenaria); test: Ovicidal activity on the eggs of nematodes (number of hatchings); format: in vivo
Experimental: (§1) The breeding of the nematodes was carried out on tomato plants. The tests were carried out with, aqueous solutions of DMDS at 0.0001%, 0.1%, 1% and 5% by mass, of DPDS at 1%, 5% and 10% by mass, and of allicin at 0.0003%, 0.0015% and 0.003% by mass, compared with a control consisting of pure water, and repeated five times. The ovicidal activity was also evaluated according to the same modalities, by counting the number of hatchings after 5 to 20 days following exposure to the products.

Phytophthora cactorum = test: Fungicidal efficacy by gassing, colonized millet grains; format: cell-based; design: Vitality score Nm (over 12 days): scale not given here; Reduction in viability RV / Reduction in vitality score RNm: unit not given here; conditions: for Reduction in viability RV / Reduction in vitality score RNm: compared with the control
Excerpt: These four organisms are the following:
Phytophthora cactorum, one of the best known representatives of the Phytophthora family, polyphagous fungi which attack mainly tomato, sweet pepper and strawberry plants, these three crops representing the majority of the worldwide consumption of methyl bromide. Phytophthora cactorum, in particular, attacks mainly the strawberry plant and fruit trees.
• Sclerotinia sclerotiorum: sclerotia • Sclerotium rolfsii: sclerotia • Rhizoctonia solani: colonized barley grains (mycelium and sclerotia) • Phytophthora cactorum: colonized millet grains (mycelium, sporangia and oospores) Preparation of the Fungi (24 h Before the Gassing Operation) 1. Preparation of the sclerotia of Sclerotinia sclerotiorum and of Sclerotium rolfsii: The fungi are cultured on malt agar medium until the sclerotia are obtained. The sclerotia are collected in a sterile manner and stored dry in empty Petri dishes until they are used. The sclerotia used for the trial are over 3 months old and are perfectly dormant. 2. Preparation of Phytophthora cactorum and of Rhizoctonia solani: The millet and barley used for the multiplication of the two fungi are moistened with ultrapure water by immersing for 24 hours. The grains are then slightly drained and then distributed into flasks and autoclaved (3 autoclavings at 110° C. for 20 minutes, 3 times at 24 hour intervals). Fragments of fungal culture are introduced into the flasks which are then incubated at 22° C.±2° C. (white light 18 h) until homogeneous colonization is obtained. The grains are then removed from the flasks in a sterile manner, dried in the sterile stream of a safety cabinet and then stored in the dry state until they are used. Conditions for Gassing and for Desorption
All the batches of fungi to be treated are placed for a few hours at the trial temperature (20° C.). Between 35 and 300 units of fungi or “propagules” (grains or sclerotia) are subjected to gassing during each trial.
Each fumigation chamber comprising to one or more species of fungi corresponds to a glass round-bottomed flask which is impervious to the gas and has a volume of 11 litres. Each round-bottomed flask is equipped with branch connections, one at the bottom for introducing the liquid DMDS, one at the top for collecting the air sample with a syringe.
Before introducing the gas, a partial vacuum (−500 mbar) is established in the round-bottomed flask with a vacuum pump. This makes it possible, on the one hand, to avoid the phenomenon of excess pressure due to the expansibility of DMDS in the round-bottomed flask and, on the other hand, to promote better homogeneity of the air-gas mixture in the first few seconds which follow injection. The DMDS (weighed accurately to the mg) is injected with a syringe, in liquid form, through the bottom branch connection, that is to say under the screen placed at half height of the round-bottomed flask and supporting the batches of fungi. After introducing the product, the internal pressure of the round-bottomed flask is re-established at atmospheric pressure. A magnetic stirrer operates during the entire duration of the treatment in order to properly homogenize the air-gas mixture.
At the end of the gassing, the cover for the round-bottomed flask is removed. One minute after this operation, the batches of fungi gassed are taken out and left in the open air for 15 minutes for desorption of the DMDS. They are then transferred into a Petri dish, the latter remaining open for 5 minutes to allow perfect desorption of the gas. […]

[2] = test system: larvae of Meloidogyne arenaria; test: Nematicidal in vitro test on second-stage juvenile larvae; format: in vivo; conditions: for Immobility rate after 48 h: 24 h in solution then 24 h in pure water; for Immobility rate after 24 h: aqueous solution
Experimental: The second-stage juvenile larvae (the free and infesting stage) are immersed for 24 hours in the test solution and then the number of larvae paralysed are counted before transferring them into pure water for another 24 hours. At the end of the 48 hours which have thus elapsed, the larvae paralysed are again counted and the larvae truly dead are counted the next day.
as §1

[3] = CT 1 050 g·h/m^3 (C 15.91 g/m^3, T 66 h)
[4] = CT 1 402 g·h/m^3 (C 21.24 g/m^3, T 66 h)
[5] = CT 1 450 g·h/m^3 (C 30.96 g/m^3, T 48 h)
[6] = CT 1 899 g·h/m^3 (C 28.77 g/m^3, T 66 h)
[7] = CT 1 981 g·h/m^3 (C 30.02 g/m^3, T 66 h)
[8] = CT 2 460 g·h/m^3 (C 51.25 g/m^3, T 48 h)
[9] = CT 2 837 g·h/m^3 (C 42.98 g/m^3, T 66 h)
[10] = CT 3 169 g·h/m^3 (C 48.02 g/m^3, T 66 h)
[11] = CT 3 467 g·h/m^3 (C 52.53 g/m^3, T 66 h)
[12] = CT 419 g·h/m^3 (C 17.46 g/m^3, T 24 h)
[13] = CT 625 g·h/m^3 (C 26.04 g/m^3, T 24 h)
[14] = CT 703 g·h/m^3 (C 29.29 g/m^3, T 24 h)
[15] = CT 907 g·h/m^3 (C 37.79 g/m^3, T 24 h)

## CSSC [DMDS, dimethyl disulphide]
[1]; 1-10 % by mass
  Ovicidal activity: very high ovicidal activity
[1]; concentration by mass 1 %, D5, control 141
  Number of hatchings (cumulative): 7
[1]; concentration by mass 1 %, D10, control 179
  Number of hatchings (cumulative): 7
[1]; concentration by mass 1 %, D13, control 184
  Number of hatchings (cumulative): 7
[1]; concentration by mass 1 %, D17, control 184
  Number of hatchings (cumulative): 7
[1]; concentration by mass 5 %, D5, control 141
  Number of hatchings (cumulative): 2
[1]; concentration by mass 5 %, D10, control 179
  Number of hatchings (cumulative): 2
[1]; concentration by mass 5 %, D13, control 184
  Number of hatchings (cumulative): 5
[1]; concentration by mass 5 %, D17, control 184
  Number of hatchings (cumulative): 5
[1]; concentration by mass 10 %, D5, control 141
  Number of hatchings (cumulative): 0
[1]; concentration by mass 10 %, D10, control 179
  Number of hatchings (cumulative): 2
[1]; concentration by mass 10 %, D13, control 184
  Number of hatchings (cumulative): 5
[1]; concentration by mass 10 %, D17, control 184
  Number of hatchings (cumulative): 5
[1]; on the last day of observation
  Reduction in the number of hatchings: approximately 97%
Phytophthora cactorum; [3]
  Viability V: 95%
  Vitality score Nm (over 12 days): 5.5
  Reduction in viability RV: 5.0
  Reduction in vitality score RNm: 43.1
Phytophthora cactorum; [4]
  Viability V: 97.8%
  Vitality score Nm (over 12 days): 6.6
  Reduction in viability RV: 2.2
  Reduction in vitality score RNm: 32.2
Phytophthora cactorum; [5]
  Viability V: 95%
  Vitality score Nm (over 12 days): 5.4
  Reduction in viability RV: 3.4
  Reduction in vitality score RNm: 40.7
Phytophthora cactorum; [6]
  Viability V: 97.8%
  Vitality score Nm (over 12 days): 5.6
  Reduction in viability RV: 2.2
  Reduction in vitality score RNm: 42.6
Phytophthora cactorum; [7]
  Viability V: 97.8%
  Vitality score Nm (over 12 days): 5.3
  Reduction in viability RV: 2.2
  Reduction in vitality score RNm: 45.7
Phytophthora cactorum; [8]
  Viability V: 43.3%
  Vitality score Nm (over 12 days): 1.7
  Reduction in viability RV: 55.9
  Reduction in vitality score RNm: 81.2
Phytophthora cactorum; [9]
  Viability V: 16.7%
  Vitality score Nm (over 12 days): 0.6
  Reduction in viability RV: 83.3
  Reduction in vitality score RNm: 93.6
Phytophthora cactorum; [10]
  Viability V: 1.1%
  Vitality score Nm (over 12 days): 0.05
  Reduction in viability RV: 98.9
  Reduction in vitality score RNm: 99.5
Phytophthora cactorum; [11]
  Viability V: 0%
  Vitality score Nm (over 12 days): 0
  Reduction in viability RV: 100
  Reduction in vitality score RNm: 100
Phytophthora cactorum; [12]
  Viability V: 91.7%
  Vitality score Nm (over 12 days): 7.7
  Reduction in viability RV: 6.8
  Reduction in vitality score RNm: 15.5
Phytophthora cactorum; [13]
  Viability V: 100%
  Vitality score Nm (over 12 days): 8.05
  Reduction in viability RV: −1.7
  Reduction in vitality score RNm: 11.9
Phytophthora cactorum; [14]
  Viability V: 100%
  Vitality score Nm (over 12 days): 8.3
  Reduction in viability RV: −1.7
  Reduction in vitality score RNm: 9.1
Phytophthora cactorum; [15]
  Viability V: 100%
  Vitality score Nm (over 12 days): 7.2
  Reduction in viability RV: −1.7
  Reduction in vitality score RNm: 21.2
[2]; concentration by mass 1 %
  Mortality rate after 72 h: 80%
  Immobility rate after 48 h: 84%
  Immobility rate after 24 h: 72%
[2]; concentration by mass 5 %
  Mortality rate after 72 h: 98%
  Immobility rate after 48 h: 98%
  Immobility rate after 24 h: 97%
[2]; concentration of greater than or equal to 1%
  Nematostatic and nematicidal activity: high nematostatic and nematicidal activity
[2]; concentration of less than 1%
  Nematicidal activity: no nematicidal activity
  Nematostatic activity: very weak nematostatic activity
